Structure (SMILES): CC(C)[C@H](NC(=O)OCc1ccccc1)C(=O)N[C@@H](Cc1cccs1)C(=O)N[C@H](C=O)C[C@@H]1CCNC1=O [MPI15]
- Solubility in DMSO: insoluble

Reference: paper PMC9235293 (European Journal of Medicinal Chemistry, 2022)
